Consider 9 compounds from publication PMC9662648 (Journal of the American Chemical Society, 2022).

In one data set the target is PL^Pro (Severe acute respiratory syndrome coronavirus 2, UniProt P0DTD1). The note with it: read-out: PL^Pro IC50.
Another data set deals with M^Pro (Severe acute respiratory syndrome coronavirus 2, UniProt P0DTD1). The class given is biochemical. The note with it: for fold less potent M^Pro inhibitor than alkyne parent: probes lacking the alkyne versus their parents; for Ki: read-out: M^Pro Ki(app), apparent; for M^Pro kinact/KI: second-order rate constant for enzyme inactivation.
For the next data set, the target named is Cathepsin B (Homo sapiens, UniProt P07858). Put plainly: Cathepsin B inhibition. The note with it: read-out: Cathepsin B IC50. Format: biochemical.
A further data set has as its system OC-43. Put plainly: Inhibition of OC-43 in A549-hACE2 cells. Format: cell-based. The note with it: to a lesser extent than SARS-CoV2.
Another data set has as its system SARS-CoV2 pseudovirus. The class given is cell-based.
Another data set can be described thus: Cytotoxicity. The class given is cell-based.
The target in a further data set is Cathepsin L (Homo sapiens, UniProt P07711). Nature of the data set: Cathepsin L inhibition. The note with it: for IC50: read-out: Cathepsin L IC50. Format: biochemical.
In another data set the test system is SARS-CoV-2. The class given is cell-based. The note with it: relative to the DMSO control.
In data set [1] the test system is SARS-CoV2. Format: in vivo, K18-hACE2 transgenic mice. The settings on record: for SARS-CoV2-induced weight loss and lethality: intranasal, 10 mg/kg once daily for 3 days starting 2 h prior to infection; for lung histopathology: intraperitoneal treatment for 5 days; for SARS-CoV-2-induced weight loss and lethality: intraperitoneal, 25 mg/kg twice daily for 5 days, post-infection; for viral RNA loads and titers in lung tissue: versus vehicle control, 72 h treatment.

Data set [2] in a line: Weight loss in mock infected mice. The settings on record: mouse, in vivo.
In data set [3] the test system is SARS-CoV2. Format: cell-based. The settings on record: for EC50: read-out: EC50 for the inhibition of SARS-CoV-2 infection.
Data set [4] in a line: Pharmacokinetics in BALB-6c mice. The note with it: for adverse events or signs of toxicity: at the tested doses.
The subject of data set [5] is SARS-CoV2. The class given is cell-based. The note with it: Huh7.5 cells, 2 μM, 24 h, MOI 0.05.
For a further data set, the target named is CatL (Homo sapiens, UniProt P07711). The settings on record: SM144 5 μM, 24 h, live A549-hACE2 cells.

Values joined by “and” are separate entries in the source; they are usually repeats but may differ in a detail not shown here. Equal values may be shown once. Read-outs that look alike come from different tables or passages of the source. Square brackets hold non-standard residues; d marks the D form. Peptide text beside a SMILES is read from it. * marks the point of attachment. Cit = NC(=O)NCCC[C@H](N)C(=O)O; CH2Cl = ClC*

Cathepsin L, sequence (P07711 114-333): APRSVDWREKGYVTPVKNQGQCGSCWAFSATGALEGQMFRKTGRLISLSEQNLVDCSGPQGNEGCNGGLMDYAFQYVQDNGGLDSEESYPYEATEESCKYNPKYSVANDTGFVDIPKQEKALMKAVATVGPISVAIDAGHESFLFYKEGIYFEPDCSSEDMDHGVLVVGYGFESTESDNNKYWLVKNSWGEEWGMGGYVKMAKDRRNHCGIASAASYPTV
CatL, sequence (P07711 114-333): as above

As for `NC(=O)NCCC[C@H](NC(=O)[C@H](Cc1ccccc1)NC(=O)[C@H](N)Cc1ccccc1)C(=O)CCl` [D-FFCit-CMK] (H-[dF]-Phe-[Cit]-CH2Cl), the IC50 on PL^Pro was greater than 50 µM. Further, the “fold less potent M^Pro inhibitor than alkyne parent” value at M^Pro is given as 4–5 fold.
In the same order, the values of `N=C(N)NCCC[C@H](NC(=O)[C@H](Cc1ccccc1)NC(=O)[C@H](N)Cc1ccccc1)C(=O)CCl` [D-FFR-CMK] (H-[dF]-Phe-Arg-CH2Cl) are 5 ± 0.3 µM and 4–5 fold.
Regarding `CCOC(=O)C=CC(CC1CCNC1=O)NC(=O)C(Cc1ccc(F)cc1)NC(=O)C(Cc1ccccc1)NC(=O)OC(C)(C)C` (stereo not drawn) [SM136], on M^Pro, the Ki stood at 73 ± 4 µM and the “M^Pro kinact/KI” value is listed as “(7.7 ± 0.3)×10^2 M^−1min^−1”.
In the same order, the values of `CCOC(=O)C=CC(CC1CCNC1=O)NC(=O)C(Cc1ccc(F)cc1)NC(=O)C(N)Cc1ccccc1` (stereo not drawn) [SM137] are 50 ± 6 µM and “(1.8 ± 0.2)×10^3 M^−1min^−1”.
On to `CCOC(=O)C=CC(CC1CCNC1=O)NC(=O)C(Cc1ccccc1)NC(=O)C(Cc1ccccc1)NC(=O)OC(C)(C)C` (stereo not drawn) [SM140], for which the IC50 at PL^Pro was greater than 50 µM. In addition, at M^Pro, the Ki was found to be 16 ± 2 µM and the “M^Pro kinact/KI” value was “(9.0 ± 0.2)×10^3 M^−1min^−1”. The IC50 at Cathepsin B was greater than 50 µM.
Turning to `CCOC(=O)C=CC(CC1CCNC1=O)NC(=O)C(Cc1ccccc1)NC(=O)C(N)Cc1ccccc1` (stereo not drawn) [SM141], on PL^Pro, the IC50 is greater than 50 µM. Besides, the “inhibition of OC-43” value with OC-43 is “inhibits OC-43”. Further, in the data set on SARS-CoV2 pseudovirus, the “additional inhibition of pseudovirus entry in CatL knockdown cells” value is given as “did not show any significant additional inhibitory activity”. Moreover, the “concentration up to which no notable cytotoxicity is caused” value in the data set “Cytotoxicity” was found to be 50000 nM. Also, on Cathepsin L, the “Cathepsin L kinact/KI” value is listed as “(1.9 ± 0.5)×10^5 M^−1min^−1” and the IC50 stood at 0.06 ± 0.001 µM. Besides, the “fold more potent for CatL inhibition than M^Pro” value at Cathepsin L (from IC50 and kinact/KI values) is reported as 10 fold. Moreover, at M^Pro, the Ki amounted to 9 ± 1 µM and the “M^Pro kinact/KI” value is “(2.0 ± 0.2)×10^4 M^−1min^−1”. The “inhibition of live virus infection in CatL knockdown cells” value with SARS-CoV-2 is reported as “do inhibit live virus infection”. Further, in the data set on SARS-CoV2 [1], the “SARS-CoV2-induced weight loss and lethality” value is “protects mice from SARS-CoV2-induced weight loss and lethality”; the lung histopathology entry was “significant reduction in lung inflammation and improved overall lung pathology”; the “SARS-CoV-2-induced weight loss and lethality” value is “protects K18-ACE2 mice from SARS-CoV-2-induced weight loss and lethality”; the “viral RNA loads and titers in lung tissue” value is on record as “remarkably lower”. Also, in data set [2], the “weight loss in mock infected mice” value is given as “no significant weight loss”. The “fold by which the antiviral EC50 is lower than potency for M^Pro inhibition” value in the data set with SARS-CoV2 [3] is reported as “more than 100 fold”. For the same compound, in the data set on SARS-CoV2 [3] (A549-hACE2 cells, 2 μM, 24 h, MOI 0.05), the antiviral activity entry is on record as “almost completely blocks viral infection”. In addition, the EC50 in the data set with SARS-CoV2 [3] (A549-hACE2 cells) came out at 0.0082 µM. Moreover, the EC90 with SARS-CoV2 [3] (read-out: EC90 for the inhibition of SARS-CoV-2 infection, A549-hACE2 cells) is 0.0221 µM. The IC50 at Cathepsin B is greater than 50 µM. Further, in [4] (IP), the “% Bioavailability” value was found to be 35.2%, the AUCINF_obs was 49620 ng·min/mL, the AUClast was 1.6 µM·h and the Cmax was found to be 2700 nM. Moreover, in [4] (IP), the T1/2 was 48 min and the Tmax was 8.4 min. For the same compound, in data set [4] (IV), the AUCINF_obs is 42350 ng·min/mL, the AUClast is 1.3 µM·h, the CI_Obs was found to be 71.5 mL/min/kg and the Cmax came to 3900 nM. Moreover, in data set [4] (IV), the MRTINF_obs was 24 min, the T1/2 amounted to 48 min, the Tmax came to 4.8 min and the VSS_obs was 1.6 L/kg. In addition, in [4] (PO), the “% Bioavailability” value came out at 5%, the AUCINF_obs worked out at 7325 ng·min/mL, the AUClast is 0.14 µM·h and the highest concentration (Cmax) was found to be 200 nM. For the same compound, the Tmax in [4] (PO) is 48 min. Further, the “adverse events or signs of toxicity” value in [4] is recorded as “no adverse events or signs of toxicity were observed”. Moreover, the antiviral activity result in the data set on SARS-CoV2 [5] is listed as “almost completely blocks viral infection”.
Consider `CCOC(=O)C=CC(CC1CCNC1=O)NC(=O)C(Cc1ccccc1)NC(=O)C(Cc1ccc(F)cc1)NC(=O)OC(C)(C)C` (stereo not drawn) [SM142], for which, on PL^Pro, the IC50 was greater than 50 µM. For the same compound, the “inhibition of OC-43” value in the data set on OC-43 is given as “inhibits OC-43”. Also, in the data set on SARS-CoV2 pseudovirus, the “additional inhibition of pseudovirus entry in CatL knockdown cells” value is on record as “did not show any significant additional inhibitory activity”. Moreover, at Cathepsin L, the “Cathepsin L kinact/KI” value was “(1.1 ± 0.01)×10^5 M^−1min^−1” and the IC50 is 0.145 ± 0.014 µM. In addition, on M^Pro, the Ki was 10 ± 1 µM and the “M^Pro kinact/KI” value is recorded as “(1.1 ± 0.3)×10^4 M^−1min^−1”. For the same compound, the “inhibition of live virus infection in CatL knockdown cells” value with SARS-CoV-2 is on record as “do inhibit live virus infection”. Besides, in the data set with SARS-CoV2 [1], the “SARS-CoV2-induced weight loss and lethality” value was “protects mice from SARS-CoV2-induced weight loss and lethality”; the lung histopathology entry is “significant reduction in lung inflammation and improved overall lung pathology”; the “SARS-CoV-2-induced weight loss and lethality” value is “protects K18-ACE2 mice from SARS-CoV-2-induced weight loss and lethality”; the “viral RNA loads and titers in lung tissue” value is recorded as “remarkably lower”. Besides, the “weight loss in mock infected mice” value in data set [2] is “no significant weight loss”. Also, the “fold by which the antiviral EC50 is lower than potency for M^Pro inhibition” value in the data set on SARS-CoV2 [3] is listed as “more than 100 fold”. The EC50 with SARS-CoV2 [3] (A549-hACE2 cells) stood at 0.0147 µM. Moreover, at Cathepsin B, the IC50 amounted to 40 ± 9 µM. Besides, in data set [4] (IV), the AUCINF_obs came to 18490 ng·min/mL, the AUClast was 0.4 µM·h, the CI_Obs is 169 mL/min/kg and the concentration peaked (Cmax) at 400 nM. Besides, in data set [4] (IV), the MRTINF_obs was 114 min, the T1/2 is 126 min, the Tmax was 4.8 min and the VSS_obs was 13.2 L/kg. In [4] (PO), the “% Bioavailability” value was 38% and 37.5%; the AUCINF_obs is 20843 ng·min/mL; the AUClast stood at 0.5 µM·h; the Cmax was determined as 600 nM. Further, in data set [4] (PO), the T1/2 worked out at 126 min and the time of peak concentration (Tmax) stood at 4.8 min. Moreover, the “adverse events or signs of toxicity” value in data set [4] is recorded as “no adverse events or signs of toxicity were observed”. Also, in data set [4] (calculated), the volume of distribution is 13 L/kg.
For the compound `C#CCOCCC(=O)NC(Cc1ccc(F)cc1)C(=O)NC(Cc1ccccc1)C(=O)NC(C=CC(=O)OCC)CC1CCNC1=O` (stereo not drawn) [SM144], the IC50 on PL^Pro is greater than 50 µM. At Cathepsin L, the “Cathepsin L kinact/KI” value was “(6 ± 0.2)×10^4 M^−1min^−1” and the IC50 is 0.22 ± 0.026 µM. Besides, on M^Pro, the Ki was found to be 4.5 ± 0.5 µM and the “M^Pro kinact/KI” value is on record as “(3.4 ± 0.1)×10^4 M^−1min^−1”. In addition, the “enrichment of CatL” value at CatL was greater than 128 fold. Further, the “antiviral activity compared with SM141 and SM142” value in the data set with SARS-CoV2 [3] is listed as “significantly lower antiviral activity”. On Cathepsin B, the IC50 is greater than 50 µM.
For `C#CCOCCC(=O)NC(Cc1ccccc1)C(=O)NC(Cc1ccccc1)C(=O)NC(C=CC(=O)OCC)CC1CCNC1=O` (stereo not drawn) [SM145], the results for the IC50 at PL^Pro, at Cathepsin L and at Cathepsin B were greater than 50 µM, 0.2 ± 0.004 µM and greater than 50 µM, respectively. Further, the “Cathepsin L kinact/KI” value at Cathepsin L is recorded as “(2.5 ± 0.01)×10^4 M^−1min^−1”. Moreover, on M^Pro, the Ki came out at 5.3 ± 0.4 µM. Besides, the “antiviral activity compared with SM141 and SM142” value in the data set on SARS-CoV2 [3] is “significantly lower antiviral activity”.
